ChEMBL document CHEMBL5370681, “Lipid Tales: Optimizing Arylomycin Membrane Anchors” (ACS Med Chem Lett, 2023)
In brackets after ≈: the same amount, converted by molar mass.

Columns and labels:
Escherichia coli [1] = test: Antibacterial activity against Escherichia coli 25922 incubated for 18 hrs in presence of 50% mouse serum by two-fold serial dilution method; format: functional
[2] = molecular target: Signal peptidase I (Escherichia coli K-12) (UniProt P00803); test: Inhibition of LepB in Escherichia coli IMP assessed as antibacterial activity by measuring reduction in bacterial growth incubated for 18 hrs by two-fold serial dilution method
Sequence of Signal peptidase I (Escherichia coli K-12) (P00803 whole entry): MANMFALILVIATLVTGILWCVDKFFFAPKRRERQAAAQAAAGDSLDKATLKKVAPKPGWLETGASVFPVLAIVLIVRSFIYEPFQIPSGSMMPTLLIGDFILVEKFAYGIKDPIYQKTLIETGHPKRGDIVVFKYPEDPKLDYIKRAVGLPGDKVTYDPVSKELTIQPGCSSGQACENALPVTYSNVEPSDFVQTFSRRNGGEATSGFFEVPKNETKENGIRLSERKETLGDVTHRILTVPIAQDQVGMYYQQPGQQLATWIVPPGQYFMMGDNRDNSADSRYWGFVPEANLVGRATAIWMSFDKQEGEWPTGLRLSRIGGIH

Escherichia coli [3] = test: Antibacterial activity against Escherichia coli 25922 incubated for 18 hrs by two-fold serial dilution method; format: functional
[4] = Unbound fraction in human plasma at 5 uM measured after 24 hrs by LC-MS/MS analysis; format: ADME, cell-free

| Structure (SMILES) | MIC (Escherichia coli [1]) | MIC [2] | MIC (Escherichia coli [3]) | fraction unbound at 24 h, 5 µM [4] |
| --- | --- | --- | --- | --- |
| CCCCCCCCCCC(=O)N[C@@H](CCN)C(=O)N(C)[C@@H]1C(=O)N[C@@H](C)C(=O)N[C@H](C(=O)NCC#N)Cc2ccc(OCCN)c(c2)-c2cc1ccc2OCCN | 15 µg/mL | 0.023 µg/mL (≈ 0.0285 µM) | 3.8 µg/mL (≈ 4.71 µM) | 0.09 |
| CCCCCCCCCCCC(=O)N[C@@H](CCN)C(=O)N(C)[C@@H]1C(=O)N[C@@H](C)C(=O)N[C@H](C(=O)NCC#N)Cc2ccc(OCCN)c(c2)-c2cc1ccc2OCCN | 7.5 µg/mL | 0.007 µg/mL (≈ 0.00854 µM) | 0.98 µg/mL (≈ 1.2 µM) | 0.03 |
| CCCCCCCCCC(=O)N[C@@H](CCN)C(=O)N(C)[C@@H]1C(=O)N[C@@H](C)C(=O)N[C@H](C(=O)NCC#N)Cc2ccc(OCCN)c(c2)-c2cc1ccc2OCCN | 51 µg/mL | 0.1 µg/mL (≈ 0.126 µM) | 15 µg/mL (≈ 18.9 µM) | – |
| CCCCCCCC(=O)N[C@@H](CCN)C(=O)N(C)[C@@H]1C(=O)N[C@@H](C)C(=O)N[C@H](C(=O)NCC#N)Cc2ccc(OCCN)c(c2)-c2cc1ccc2OCCN | 60 µg/mL | 0.35 µg/mL (≈ 0.458 µM) | 31 µg/mL (≈ 40.6 µM) | 0.59 |
| CCCCc1ccc(-c2ccc(C(=O)N[C@@H](CCN)C(=O)N(C)[C@@H]3C(=O)N[C@@H](C)C(=O)N[C@H](C(=O)NCC#N)Cc4ccc(OCCN)c(c4)-c4cc3ccc4OCCN)cc2)cc1 | 2.1 µg/mL | 0.016 µg/mL (≈ 0.0183 µM) | 0.2 µg/mL (≈ 0.229 µM) | – |
| Cc1cc(-c2ccc(C(C)C)cc2)ccc1C(=O)N[C@@H](CCN)C(=O)N(C)[C@@H]1C(=O)N[C@@H](C)C(=O)N[C@H](C(=O)NCC#N)Cc2ccc(OCCN)c(c2)-c2cc1ccc2OCCN | 0.96 µg/mL | 0.007 µg/mL (≈ 0.00801 µM) | 0.15 µg/mL (≈ 0.172 µM) | 0.086 |
| C[C@@H]1NC(=O)[C@@H](N(C)C(=O)[C@H](CCN)NC(=O)c2ccc(-c3ccc(Cl)cc3)cc2)c2ccc(OCCN)c(c2)-c2cc(ccc2OCCN)C[C@@H](C(=O)NCC#N)NC1=O | 3.8 µg/mL | 0.022 µg/mL (≈ 0.0258 µM) | 1.5 µg/mL (≈ 1.76 µM) | 0.2 |
| Cc1cc(-c2ccc(-c3ccccc3)cc2)ccc1C(=O)N[C@@H](CCN)C(=O)N(C)[C@@H]1C(=O)N[C@@H](C)C(=O)N[C@H](C(=O)NCC#N)Cc2ccc(OCCN)c(c2)-c2cc1ccc2OCCN | 1.5 µg/mL | 0.043 µg/mL (≈ 0.0474 µM) | 0.22 µg/mL (≈ 0.242 µM) | 0.017 |
| CCCCCCCCCCCCC(=O)N[C@@H](CCN)C(=O)N(C)[C@@H]1C(=O)N[C@@H](C)C(=O)N[C@H](C(=O)NCC#N)Cc2ccc(OCCN)c(c2)-c2cc1ccc2OCCN | 3.8 µg/mL | 0.007 µg/mL (≈ 0.00839 µM) | 0.23 µg/mL (≈ 0.276 µM) | 0.01 |
| CCCCCCCCCCCCCC(=O)N[C@@H](CCN)C(=O)N(C)[C@@H]1C(=O)N[C@@H](C)C(=O)N[C@H](C(=O)NCC#N)Cc2ccc(OCCN)c(c2)-c2cc1ccc2OCCN | 3.8 µg/mL | 0.014 µg/mL (≈ 0.0165 µM) | 0.24 µg/mL (≈ 0.283 µM) | – |
| C[C@@H]1NC(=O)[C@@H](N(C)C(=O)[C@H](CCN)NC(=O)c2ccc(-c3ccc(C(C)(C)C)cc3)nc2N)c2ccc(OCCN)c(c2)-c2cc(ccc2OCCN)C[C@@H](C(=O)NCC#N)NC1=O | 0.89 µg/mL | 0.011 µg/mL (≈ 0.0124 µM) | 0.45 µg/mL (≈ 0.506 µM) | 0.063 |
| Cc1cc(-c2ccccc2)ccc1C(=O)N[C@@H](CCN)C(=O)N(C)[C@@H]1C(=O)N[C@@H](C)C(=O)N[C@H](C(=O)NCC#N)Cc2ccc(OCCN)c(c2)-c2cc1ccc2OCCN | 2 µg/mL | 0.023 µg/mL (≈ 0.0276 µM) | 3 µg/mL (≈ 3.61 µM) | 0.34 |
| CC(C)CCc1ccc(-c2ccc(C(=O)N[C@@H](CCN)C(=O)N(C)[C@@H]3C(=O)N[C@@H](C)C(=O)N[C@H](C(=O)NCC#N)Cc4ccc(OCCN)c(c4)-c4cc3ccc4OCCN)cc2)cc1 | 3.8 µg/mL | 0.015 µg/mL (≈ 0.0169 µM) | 0.18 µg/mL (≈ 0.203 µM) | – |
| Cc1cc(-c2ccc(Cl)cc2)ccc1C(=O)N[C@@H](CCN)C(=O)N(C)[C@@H]1C(=O)N[C@@H](C)C(=O)N[C@H](C(=O)NCC#N)Cc2ccc(OCCN)c(c2)-c2cc1ccc2OCCN | 2.3 µg/mL | 0.01 µg/mL (≈ 0.0115 µM) | 0.83 µg/mL (≈ 0.958 µM) | 0.13 |
| CCCCCCCCC(=O)N[C@@H](CCN)C(=O)N(C)[C@@H]1C(=O)N[C@@H](C)C(=O)N[C@H](C(=O)NCC#N)Cc2ccc(OCCN)c(c2)-c2cc1ccc2OCCN | 61 µg/mL | 0.12 µg/mL (≈ 0.154 µM) | 23 µg/mL (≈ 29.6 µM) | – |

The next compounds have a lower MIC (Escherichia coli [1]) than those just listed; values first:

| MIC (Escherichia coli [1]) | MIC [2] | MIC (Escherichia coli [3]) | fraction unbound at 24 h, 5 µM [4] | Structure (SMILES) |
| --- | --- | --- | --- | --- |
| 0.34 µg/mL | 0.011 µg/mL (≈ 0.0124 µM) | 0.22 µg/mL (≈ 0.247 µM) | – | C[C@@H]1NC(=O)[C@@H](N(C)C(=O)[C@H](CCN)NC(=O)c2cnc(-c3ccc(C(C)(C)C)cc3)cc2N)c2ccc(OCCN)c(c2)-c2cc(ccc2OCCN)C[C@@H](C(=O)NCC#N)NC1=O |
| 0.11 µg/mL | 0.005 µg/mL (≈ 0.00552 µM) | 0.11 µg/mL (≈ 0.122 µM) | 0.12 | Cc1nc(-c2ccc(C(C)(C)C)cc2)nc(N)c1C(=O)N[C@@H](CCN)C(=O)N(C)[C@@H]1C(=O)N[C@@H](C)C(=O)N[C@H](C(=O)NCC#N)Cc2ccc(OCCN)c(c2)-c2cc1ccc2OCCN |
| 0.2 µg/mL | 0.004 µg/mL (≈ 0.00449 µM) | 0.14 µg/mL (≈ 0.157 µM) | 0.23 | Cc1nc(-c2ccc(C(C)(C)C)cc2)ncc1C(=O)N[C@@H](CCN)C(=O)N(C)[C@@H]1C(=O)N[C@@H](C)C(=O)N[C@H](C(=O)NCC#N)Cc2ccc(OCCN)c(c2)-c2cc1ccc2OCCN |
| 0.12 µg/mL | 0.004 µg/mL (≈ 0.00443 µM) | 0.18 µg/mL (≈ 0.199 µM) | 0.083 | Cc1cc(-c2ccc(C(C)(C)C)cc2)nc(C)c1C(=O)N[C@@H](CCN)C(=O)N(C)[C@@H]1C(=O)N[C@@H](C)C(=O)N[C@H](C(=O)NCC#N)Cc2ccc(OCCN)c(c2)-c2cc1ccc2OCCN |
| 0.45 µg/mL | 0.007 µg/mL (≈ 0.00774 µM) | 0.23 µg/mL (≈ 0.254 µM) | 0.058 | Cc1cc(-c2ccc(C(C)(C)C)cc2)nc(N)c1C(=O)N[C@@H](CCN)C(=O)N(C)[C@@H]1C(=O)N[C@@H](C)C(=O)N[C@H](C(=O)NCC#N)Cc2ccc(OCCN)c(c2)-c2cc1ccc2OCCN |
| 0.83 µg/mL | 0.006 µg/mL (≈ 0.00676 µM) | 0.08 µg/mL (≈ 0.0901 µM) | 0.001 | Cc1cc(-c2ccc(CC(C)C)cc2)ccc1C(=O)N[C@@H](CCN)C(=O)N(C)[C@@H]1C(=O)N[C@@H](C)C(=O)N[C@H](C(=O)NCC#N)Cc2ccc(OCCN)c(c2)-c2cc1ccc2OCCN |
| 0.08 µg/mL | 0.007 µg/mL (≈ 0.00774 µM) | 0.12 µg/mL (≈ 0.133 µM) | – | Cc1nc(-c2ccc(C(C)(C)C)cc2)cc(N)c1C(=O)N[C@@H](CCN)C(=O)N(C)[C@@H]1C(=O)N[C@@H](C)C(=O)N[C@H](C(=O)NCC#N)Cc2ccc(OCCN)c(c2)-c2cc1ccc2OCCN |
| 0.34 µg/mL | 0.005 µg/mL (≈ 0.00554 µM) | 0.17 µg/mL (≈ 0.188 µM) | – | Cc1cc(-c2ccc(C(C)(C)C)cc2)cc(C)c1C(=O)N[C@@H](CCN)C(=O)N(C)[C@@H]1C(=O)N[C@@H](C)C(=O)N[C@H](C(=O)NCC#N)Cc2ccc(OCCN)c(c2)-c2cc1ccc2OCCN |
| 0.75 µg/mL | 0.008 µg/mL (≈ 0.0093 µM) | 0.31 µg/mL (≈ 0.36 µM) | 0.053 | CCc1ccc(-c2ccc(C(=O)N[C@@H](CCN)C(=O)N(C)[C@@H]3C(=O)N[C@@H](C)C(=O)N[C@H](C(=O)NCC#N)Cc4ccc(OCCN)c(c4)-c4cc3ccc4OCCN)c(C)c2)cc1 |
| 0.12 µg/mL | 0.004 µg/mL (≈ 0.0045 µM) | 0.12 µg/mL (≈ 0.135 µM) | – | Cc1nc(-c2ccc(C(C)(C)C)cc2)ccc1C(=O)N[C@@H](CCN)C(=O)N(C)[C@@H]1C(=O)N[C@@H](C)C(=O)N[C@H](C(=O)NCC#N)Cc2ccc(OCCN)c(c2)-c2cc1ccc2OCCN |
| 0.12 µg/mL | 0.021 µg/mL (≈ 0.0232 µM) | 0.34 µg/mL (≈ 0.376 µM) | – | Cc1nc(-c2ccc(C(C)(C)C)cc2)c(N)cc1C(=O)N[C@@H](CCN)C(=O)N(C)[C@@H]1C(=O)N[C@@H](C)C(=O)N[C@H](C(=O)NCC#N)Cc2ccc(OCCN)c(c2)-c2cc1ccc2OCCN |
| 0.44 µg/mL | 0.011 µg/mL (≈ 0.0124 µM) | 0.12 µg/mL (≈ 0.135 µM) | 0.001 | Cc1cc(-c2ccc(C(C)(C)C)cc2)ccc1C(=O)N[C@@H](CCN)C(=O)N(C)[C@@H]1C(=O)N[C@@H](C)C(=O)N[C@H](C(=O)NCC#N)Cc2ccc(OCCN)c(c2)-c2cc1ccc2OCCN |
| 0.68 µg/mL | 0.007 µg/mL (≈ 0.00773 µM) | 0.34 µg/mL (≈ 0.376 µM) | – | CNc1nc(-c2ccc(C(C)(C)C)cc2)ncc1C(=O)N[C@@H](CCN)C(=O)N(C)[C@@H]1C(=O)N[C@@H](C)C(=O)N[C@H](C(=O)NCC#N)Cc2ccc(OCCN)c(c2)-c2cc1ccc2OCCN |
| 0.24 µg/mL | 0.004 µg/mL (≈ 0.0045 µM) | 0.12 µg/mL (≈ 0.135 µM) | 0.11 | Cc1cc(-c2ccc(C(C)(C)C)cc2)ncc1C(=O)N[C@@H](CCN)C(=O)N(C)[C@@H]1C(=O)N[C@@H](C)C(=O)N[C@H](C(=O)NCC#N)Cc2ccc(OCCN)c(c2)-c2cc1ccc2OCCN |
| 0.17 µg/mL | 0.003 µg/mL (≈ 0.00332 µM) | 0.13 µg/mL (≈ 0.144 µM) | 0.22 | Cc1nc(-c2ccc(C(C)(C)C)cc2)nc(C)c1C(=O)N[C@@H](CCN)C(=O)N(C)[C@@H]1C(=O)N[C@@H](C)C(=O)N[C@H](C(=O)NCC#N)Cc2ccc(OCCN)c(c2)-c2cc1ccc2OCCN |
